Data from patent publication US8410302B2, “Methoxyimino compounds and fungicide composition comprising same” (Kyung Nong Corporation, priority 2007, dated 2013).

Tests used:
[1] = test system: Pyricularia oryzae Carvara KA301; test: whole plant or invertebrate; assay type: in vivo; conditions: Pyricularia oryzae, read-out: RCB control value (C.V.)
[2] = test system: Botrytis cinerae; test: Fungicidal activity against cucumber gray mold rot (CGM) disease, control value; assay type: in vivo; conditions: Botrytis; 100 ppm, cucumber gray mold rot; read-out: CGM control value (C.V.)
[3] = test system: Phytophthora infestans; test: whole plant or invertebrate; assay type: in vivo; conditions: Phytophthora infestans, in Solanum lycopersicum, read-out: TLB control value (C.V.)
[4] = test system: Puccinia recondita; test: Fungicidal activity against wheat leaf rust (WLR) disease, control value; assay type: in vivo; conditions: wheat leaf rust, read-out: WLR control value (C.V.)
[5] = test system: Erysiphae graminis; test: Fungicidal activity against barley powdery mildew (BPM) disease, control value; assay type: in vivo; conditions: Hordeum vulgare, 168 h, barley powdery mildew, read-out: BPM control value (C.V.)
[6] = test system: Rhizoctonia solani AG-1; test: Fungicidal activity against rice sheath blight (RSB) disease, control value; conditions: Rhizoctonia solani, AG1, in Oryza sativa, read-out: RSB control value (C.V.)

| SMILES | pest or weed control at 2 ppm [1] [%] | pest or weed control at 10 ppm [1] [%] | pest or weed control at 50 ppm [1] [%] | pest or weed control at 100 ppm [1] [%] | pest or weed control at 100 ppm [2] [%] | pest or weed control at 2 ppm [3] [%] | pest or weed control at 10 ppm [3] [%] | pest or weed control at 50 ppm [3] [%] | pest or weed control at 100 ppm [3] [%] | pest or weed control at 2 ppm [4] [%] | pest or weed control at 10 ppm [4] [%] | pest or weed control at 50 ppm [4] [%] | pest or weed control at 100 ppm [4] [%] | pest or weed control at 2 ppm [5] [%] | pest or weed control at 10 ppm [5] [%] | pest or weed control at 50 ppm [5] [%] | pest or weed control at 100 ppm [5] [%] | pest or weed control at 2 ppm [6] [%] | pest or weed control at 10 ppm [6] [%] | pest or weed control at 50 ppm [6] [%] | also measured |
| --- | --- | --- | --- | --- | --- | --- | --- | --- | --- | --- | --- | --- | --- | --- | --- | --- | --- | --- | --- | --- | --- |
| CNC(=O)/C(=N/OC)c1ccccc1COc1cccc(C=C(Cl)Cl)c1Cl [Example 44, (E)-2-(2-((2-chloro-3-(2,2-dichlorovinyl)phenoxy)methyl)phenyl)-2-methoxyimino-N-methylacetamide] | 100 | 100 | 100 | 100 | 10 | 95 | 100 | 100 | 100 | 100 | 100 | 100 | 100 | 100 | 100 | 100 | 100 | 90 | 100 | 100 | pest or weed control at 100 ppm [6]: 100% |
| CO/N=C(/C(=O)OC)c1ccccc1COc1ccc(C)cc1C=C(Cl)Cl [Example 45, methyl-(E)-2-(2-((2-(2,2-dichlorovinyl)-4-methylphenoxy)methyl)phenyl)-2-methoxyiminoacetate] | 100 | 100 | 100 | 100 | 35 | 92 | 98 | 100 | 100 | 100 | 100 | 100 | 100 | 100 | 100 | 100 | 100 | 100 | 100 | 100 | pest or weed control at 100 ppm [6]: 100% |
| CNC(=O)/C(=N/OC)c1ccccc1COc1ccc(C)cc1C=C(Cl)Cl [Example 46, (E)-2-(2-((2-(2,2-dichlorovinyl)-4-methylphenoxy)methyl)phenyl)-2-methoxyimino-N-methylacetamide] | 95 | 100 | 100 | 100 | 30 | 96 | 100 | 100 | 100 | 100 | 100 | 100 | 100 | 100 | 100 | 100 | 100 | 98 | 100 | 100 | pest or weed control at 100 ppm [6]: 100% |
| CO/N=C(/C(=O)OC)c1ccccc1COc1cc(C=C(Cl)Cl)ccc1OC [Example 47, methyl-(E)-2-(2-((5-(2,2-dichlorovinyl)-2-methoxyphenoxy)methyl)phenyl)-2-methoxyiminoacetate] | 80 | 99 | 100 | 100 | 55 | 85 | 95 | 100 | 100 | 100 | 100 | 100 | 100 | 100 | 100 | 100 | 100 | 95 | 100 | 100 | pest or weed control at 100 ppm [6]: 100% |
